In patent publication US4467086A, “Cephalosporin antibiotic” (Glaxo Group Limited, priority 1979, dated 1984):
Where a name gives a salt, the structure may show the parent alone.

Columns and labels:
[1] = storage stability of the solid; assay type: physicochemical
[2] = test system: indolepositive Proteus; experiment: antibacterial activity, indole-positive Proteus; assay type: cell-based; details: organisms normally difficult to combat with β-lactam antibiotics
[3] = test system: Serratia; experiment: antibacterial activity, Serratia; assay type: cell-based; details: organisms normally difficult to combat with β-lactam antibiotics
[4] = test system: Providence; experiment: antibacterial activity, Providence; assay type: cell-based; details: organisms normally difficult to combat with β-lactam antibiotics
[5] = test system: Pseudomonas organisms; experiment: antibacterial activity, Pseudomonas; assay type: cell-based; details: organisms normally difficult to combat with β-lactam antibiotics
[6] = test system: bacteria; experiment: antibacterial properties: human serum effect, inoculum effect, bactericidal action; assay type: cell-based
[7] = test system: gram-negative bacteria; experiment: experimental infections in mice with gram-negative bacteria; assay type: in vivo
[8] = test system: Pseudomonas aeruginosa; experiment: experimental infections in mice with Pseudomonas aeruginosa; assay type: in vivo
[9] = pharmacokinetics in human volunteers; assay type: in vivo
[10] = early clinical results; assay type: in vivo, human
[11] = in vivo
[12] = test system: gram-negative organisms, including many β-lactamase-producing gram-negative strains; details: as described in UK Patent Specification No. 2025398, cited from earlier work

SMILES | stability ([1]; crystalline form, stored for an extended period at a temperature of 50° C.) | activity against indole-positive Proteus [2] | activity against Serratia [3] | activity against Providence [4] | activity against Pseudomonas [5] | effect of human serum on antibacterial properties [6] | treatment of experimental infections [7] | protection against Pseudomonas aeruginosa infection [8] | protection compared with aminoglycoside treatment ([8]; versus an aminoglycoside such as amikacin) | serum levels after injection [9] | clinical antibiotic properties [10] | stability ([1]; amorphous solid, especially at elevated temperatures) | distribution in the body [11] | antibiotic activity spectrum [12] | activity against gram-negative organisms ([12]; including many β-lactamase-producing gram-negative strains)
CC(C)(O/N=C(\C(=O)N[C@@H]1C(=O)N2C(C(=O)[O-])=C(C[n+]3ccccc3)CS[C@H]12)c1csc(N)n1)C(=O)O [(6R,7R)-7-[(Z)-2-(2-aminothiazol-4-yl)-2-(2-carboxyprop-2-oxyimino)acetamido]-3-(1-pyridiniummethyl)ceph-3-em-4-carboxylate bishydrochloride] | remarkably stable |  |  |  |  |  |  |  |  |  |  |  |  |  | 
CC(C)(O/N=C(\C(=O)N[C@@H]1C(=O)N2C(C(=O)[O-])=C(C[n+]3ccccc3)CS[C@H]12)c1csc(N)n1)C(=O)O [ceftazidime, (6R,7R)-7-[(Z)-2-(2-aminothiazol-4-yl)-2-(2-carboxyprop-2-oxyimino)acetamido]-3-(1-pyridiniummethyl)ceph-3-em-4-carboxylate] |  | excellent activity | excellent activity | excellent activity | excellent activity | not impaired | successfully treated | excellent protection | comparable | high and long lasting | reproduces in the clinic the excellent antibiotic properties | not particularly satisfactory | well distributed | broad spectrum antibiotic activity | unusually high activity
